Tests used:
MKNK1 [1] = molecular target: T1, MKNK1 (Homo sapiens, UniProt Q9BUB5, T385D); test: MKNK1 kinase high ATP assay (TR-FRET); assay type: biochemical; conditions: ATP final conc. 2 mM; 15 min pre-incubation; reaction time 30 min at 22°C
T1 construct: GST (N); purchased Carna Biosciences 02-145; host or cells: insect cells (baculovirus expression system)
Method: MKNK1-inhibitory activity at high ATP of compounds of the present invention after their preincubation with MKNK1 was quantified employing the TR-FRET-based MKNK1 high ATP assay as described in the following paragraphs.
As substrate for the kinase reaction the biotinylated peptide biotin-Ahx-[…] (C-terminus in amide form) was used, which can be purchased e.g. from the company Biosyntan (Berlin-Buch, Germany).
For the assay 50 nL of a 100fold concentrated solution of the test compound in DMSO was pipetted into a black low volume 384well microtiter plate (Greiner Bio-One, Frickenhausen, Germany), 2 µL of a solution of MKNK1 in aqueous assay buffer [50 mM HEPES pH 7.5, 5 mM magnesium chloride, 1.0 mM dithiothreitol, 0.005% (v/v) Nonidet-P40 (Sigma)] was added and the mixture was incubated for 15 min at 22°C to allow pre-binding of the test compounds to the enzyme before the start of the kinase reaction. Then the kinase reaction was started by the addition of 3 µL of a solution of adenosine-tri-phosphate (ATP, 3.3 mM => final conc. in the 5 µL assay volume is 2 mM) and substrate (0.1 µM => final conc. in the 5 µL assay volume is 0.06 µM) in assay buffer and the resulting mixture was incubated for a reaction time of 30 min at 22°C. The concentration of MKNK1 was adjusted depending of the activity of the enzyme lot and was chosen appropriate to have the assay in the linear range, typical concentrations were in the range of 0.003 µg/mL. The reaction was stopped by the addition of 5 µL of a solution of TR-FRET detection reagents (5 nM streptavidine-XL665 [Cisbio Bioassays, Codolet, France] and 1 nM anti-ribosomal protein S6 (pSer236)-antibody from Invitrogen [# 44921G] and 1 nM LANCE EU-W1024 labeled ProteinG [Perkin-Elmer, product no. AD0071]) in an aqueous EDTA-solution (100 mM EDTA, 0.1 % (w/v) bovine serum albumin in 50 mM HEPES pH 7.5).
(§1) The resulting mixture was incubated for 1 h at 22°C to allow the formation of complex between the phosphorylated biotinylated peptide and the detection reagents. Subsequently the amount of phosphorylated substrate was evaluated by measurement of the resonance energy transfer from the Eu-chelate to the streptavidine-XL. Therefore, the fluorescence emissions at 620 nm and 665 nm after excitation at 350 nm were measured in a TR-FRET reader, e.g. a Rubystar (BMG Labtechnologies, Offenburg, Germany) or a Viewlux (Perkin-Elmer). The ratio of the emissions at 665 nm and at […] was taken as the measure for the amount of phosphorylated substrate. The data were normalised (enzyme reaction without inhibitor = 0 % inhibition, all other assay components but no enzyme = 100 % inhibition).

MKNK1 [2] = molecular target: T1, MKNK1; test: MKNK1 kinase assay (TR-FRET); assay type: biochemical; conditions: ATP final conc. 10 µM; 15 min pre-incubation; reaction time 45 min at 22°C
Method: MKNK1-inhibitory activity of compounds of the present invention was quantified employing the MKNK1 TR-FRET assay as described in the following paragraphs.
As substrate for the kinase reaction the biotinylated peptide biotin-Ahx-[…] (C-terminus in amide form) was used which can be purchased e.g. form the company Biosyntan (Berlin-Buch, Germany).
For the assay 50 nL of a 100fold concentrated solution of the test compound in DMSO was pipetted into a black low volume 384well microtiter plate (Greiner Bio-One, Frickenhausen, Germany), 2 µL of a solution of MKNK1 in aqueous assay buffer [50 mM HEPES pH 7.5, 5 mM magnesium chloride, 1.0 mM dithiothreitol, 0.005% (v/v) Nonidet-P40 (Sigma)] was added and the mixture was incubated for 15 min at 22°C to allow pre-binding of the test compounds to the enzyme before the start of the kinase reaction. Then the kinase reaction was started by the addition of 3 µL of a solution of adenosine-tri-phosphate (ATP, 16.7 µM => final conc. in the 5 µL assay volume is 10 µM) and substrate (0.1 µM => final conc. in the 5 µL assay volume is 0.06 µM) in assay buffer and the resulting mixture was incubated for a reaction time of 45 min at 22°C.
as §1, with “inhibition). […] Table 1: MKNK1 IC50s” for “inhibition).”

T1 sequence (Q9BUB5 1-424 isoform Q9BUB5-2 T344D): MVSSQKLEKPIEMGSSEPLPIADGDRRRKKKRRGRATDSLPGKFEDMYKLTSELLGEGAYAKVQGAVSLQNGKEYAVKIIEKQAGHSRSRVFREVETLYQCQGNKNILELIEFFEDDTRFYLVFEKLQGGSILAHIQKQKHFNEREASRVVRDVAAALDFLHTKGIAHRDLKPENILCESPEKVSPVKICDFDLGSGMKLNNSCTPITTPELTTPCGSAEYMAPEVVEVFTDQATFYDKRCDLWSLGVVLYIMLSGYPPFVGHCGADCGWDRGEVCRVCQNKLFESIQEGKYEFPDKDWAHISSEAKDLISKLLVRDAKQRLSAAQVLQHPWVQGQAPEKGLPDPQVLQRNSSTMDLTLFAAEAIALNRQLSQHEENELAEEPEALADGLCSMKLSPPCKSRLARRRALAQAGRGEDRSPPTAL

SMILES	IC50 (MKNK1 [1]) [nM]	IC50 (MKNK1 [2]) [nM]
C[C@H](N)COc1ccc2ncc(-c3cc4c(F)cccc4o3)n2n1 [Example 45, (2S)-1-{[3-(4-Fluoro-1-benzofuran-2-yl)imidazo[1,2-b]pyridazin-6-yl]oxy}-propan-2-amine]	71	17
N[C@H](COc1ccc2ncc(-c3cc4c(F)cccc4o3)n2n1)c1ccccc1 [Example 46, (1S)-2-{[3-(4-Fluoro-1-benzofuran-2-yl)imidazo[1,2-b]pyridazin-6-yl]oxy}-1-phenylethanamine]	67	36
C[C@H](CN)Oc1ccc2ncc(-c3cc4cccc(F)c4o3)n2n1 [Example 48, (2R)-2-{[3-(7-Fluoro-1-benzofuran-2-yl)imidazo[1,2-b]pyridazin-6-yl]oxy}-propan-1-amine]	115	71
Cc1ccc2oc(-c3cnc4ccc(O[C@H](C)CN)nn34)cc2c1 [Example 49]	154	88
N[C@H](COc1ccc2ncc(-c3cc4ccccc4o3)n2n1)Cc1ccccc1 [Example 50, (2S)-1-{[3-(1-Benzofuran-2-yl)imidazo[1,2-b]pyridazin-6-yl]oxy}-3-phenyl-propan-2-amine]	54	27
NC1(COc2ccc3ncc(-c4cc5ccccc5o4)n3n2)CC1 [Example 51, 1-({[3-(1-Benzofuran-2-yl)imidazo[1,2-b]pyridazin-6-yl]oxy}methyl)cyclo-propanamine]	74	29
NCC(COc1ccc2ncc(-c3cc4ccccc4o3)n2n1)c1ccccc1 (centres unmarked) [Example 52, 3-{[3-(1-Benzofuran-2-yl)imidazo[1,2-b]pyridazin-6-yl]oxy}-2-phenylpropan-1-amine]	30	17

Source: patent EP2758401B1 (Bayer Intellectual Property GmbH, priority 2011, dated 2013)
